Assay results reported in article PMC7385619, “A triple action CDK4/6-PI3K-BET inhibitor with augmented cancer cell cytotoxicity” (Cell Discovery, 2020).
Like-named read-outs stand apart in the source and are kept apart here.

Tests used:
Assay in all cases: KINOMEscan assay (Eurofins DiscoverX)
Assay type in all cases: binding
kinome (kinase panel) [1] = biological target: T1, kinome (kinase panel) (Homo sapiens, UniProt Q00536); conditions: PCTK1 (Entrez CDK16); 1000 nM; read-out: Percent Control
T1 construct: purchased Eurofins DiscoverX

kinome (kinase panel) [2] = biological target: T2, kinome (kinase panel) (Homo sapiens, UniProt P51812); conditions: 1000 nM, read-out: Percent Control
T2 construct: purchased Eurofins DiscoverX
T2 sequence (P51812 whole entry): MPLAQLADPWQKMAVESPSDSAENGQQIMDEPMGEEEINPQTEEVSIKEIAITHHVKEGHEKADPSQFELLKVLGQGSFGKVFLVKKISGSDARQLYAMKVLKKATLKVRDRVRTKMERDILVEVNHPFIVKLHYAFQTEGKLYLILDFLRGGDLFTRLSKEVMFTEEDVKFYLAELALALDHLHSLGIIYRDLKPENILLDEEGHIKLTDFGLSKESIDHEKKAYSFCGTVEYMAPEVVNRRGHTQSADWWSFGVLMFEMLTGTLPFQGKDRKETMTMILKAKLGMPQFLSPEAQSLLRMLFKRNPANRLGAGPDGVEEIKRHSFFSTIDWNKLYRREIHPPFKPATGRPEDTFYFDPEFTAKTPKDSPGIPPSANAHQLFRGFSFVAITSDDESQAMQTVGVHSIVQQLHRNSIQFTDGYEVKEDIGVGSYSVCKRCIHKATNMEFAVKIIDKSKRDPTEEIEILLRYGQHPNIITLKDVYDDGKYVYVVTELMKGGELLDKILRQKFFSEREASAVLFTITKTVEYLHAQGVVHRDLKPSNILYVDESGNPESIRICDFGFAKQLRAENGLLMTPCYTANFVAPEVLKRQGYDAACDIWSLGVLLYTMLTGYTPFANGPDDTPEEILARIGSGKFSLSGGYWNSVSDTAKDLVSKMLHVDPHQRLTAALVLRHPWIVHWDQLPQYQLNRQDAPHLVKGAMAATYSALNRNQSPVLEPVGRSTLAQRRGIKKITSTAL

kinome (kinase panel) [3] = biological target: T3, kinome (kinase panel) (Homo sapiens, UniProt P42681); conditions: TXK; 1000 nM; read-out: Percent Control
T3 construct: purchased Eurofins DiscoverX
T3 sequence (P42681 whole entry): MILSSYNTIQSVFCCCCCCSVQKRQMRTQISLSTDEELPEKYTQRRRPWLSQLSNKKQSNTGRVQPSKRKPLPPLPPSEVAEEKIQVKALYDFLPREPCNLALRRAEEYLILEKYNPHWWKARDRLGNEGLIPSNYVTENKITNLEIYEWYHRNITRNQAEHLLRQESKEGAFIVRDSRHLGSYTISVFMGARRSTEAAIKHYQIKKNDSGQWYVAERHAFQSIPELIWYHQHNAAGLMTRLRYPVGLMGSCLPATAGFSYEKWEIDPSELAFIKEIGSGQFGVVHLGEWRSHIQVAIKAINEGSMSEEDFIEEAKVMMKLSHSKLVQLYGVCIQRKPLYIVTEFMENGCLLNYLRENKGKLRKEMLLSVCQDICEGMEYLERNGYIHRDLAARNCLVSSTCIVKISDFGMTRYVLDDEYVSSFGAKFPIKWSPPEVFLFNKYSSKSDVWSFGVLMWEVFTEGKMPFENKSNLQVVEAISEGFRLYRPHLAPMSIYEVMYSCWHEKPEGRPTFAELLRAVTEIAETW

kinome (kinase panel) [4] = biological target: T4, kinome (kinase panel) (Homo sapiens, UniProt P08069); conditions: IGF1R; 1000 nM; read-out: Percent Control
T4 construct: purchased Eurofins DiscoverX

kinome (kinase panel) [5] = biological target: T5, kinome (kinase panel) (Homo sapiens, UniProt Q9UPZ9); conditions: ICK; 1000 nM; read-out: Percent Control
T5 construct: purchased Eurofins DiscoverX

kinome (kinase panel) [6] = biological target: T6, kinome (kinase panel) (Homo sapiens, UniProt Q9UK32); conditions: 1000 nM, read-out: Percent Control
T6 construct: purchased Eurofins DiscoverX
T6 sequence (Q9UK32 whole entry): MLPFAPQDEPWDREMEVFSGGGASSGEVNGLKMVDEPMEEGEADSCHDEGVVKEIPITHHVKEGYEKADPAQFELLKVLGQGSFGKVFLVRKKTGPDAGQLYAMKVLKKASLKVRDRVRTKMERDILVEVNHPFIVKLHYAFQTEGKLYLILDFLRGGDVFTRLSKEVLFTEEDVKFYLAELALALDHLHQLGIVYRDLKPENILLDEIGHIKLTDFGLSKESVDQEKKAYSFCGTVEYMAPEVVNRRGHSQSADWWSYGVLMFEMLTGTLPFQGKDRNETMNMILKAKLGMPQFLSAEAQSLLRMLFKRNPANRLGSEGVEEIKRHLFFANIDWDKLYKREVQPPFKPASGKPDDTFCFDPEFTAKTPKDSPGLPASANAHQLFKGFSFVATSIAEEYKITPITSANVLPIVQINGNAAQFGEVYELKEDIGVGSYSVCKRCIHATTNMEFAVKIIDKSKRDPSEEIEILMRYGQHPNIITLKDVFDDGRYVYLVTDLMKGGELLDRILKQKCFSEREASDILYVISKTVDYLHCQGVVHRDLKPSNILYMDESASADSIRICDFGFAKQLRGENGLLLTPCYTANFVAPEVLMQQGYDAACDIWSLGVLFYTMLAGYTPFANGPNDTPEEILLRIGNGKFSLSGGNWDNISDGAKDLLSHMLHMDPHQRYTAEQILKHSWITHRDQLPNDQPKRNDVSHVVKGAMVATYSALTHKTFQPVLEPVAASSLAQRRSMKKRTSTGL

kinome (kinase panel) [7] = biological target: T7, kinome (kinase panel) (Homo sapiens, UniProt Q16288); conditions: TRKC (NTRK3); 1000 nM; read-out: Percent Control
T7 construct: purchased Eurofins DiscoverX

kinome (kinase panel) [8] = biological target: T8, kinome (kinase panel) (Homo sapiens, UniProt Q92772); conditions: CDKL2; 1000 nM; read-out: Percent Control
T8 construct: purchased Eurofins DiscoverX

kinome (kinase panel) [9] = biological target: T9, kinome (kinase panel) (Homo sapiens, UniProt P37023); conditions: ACVRL1; 1000 nM; read-out: Percent Control
T9 construct: purchased Eurofins DiscoverX
T9 sequence (P37023 22-503): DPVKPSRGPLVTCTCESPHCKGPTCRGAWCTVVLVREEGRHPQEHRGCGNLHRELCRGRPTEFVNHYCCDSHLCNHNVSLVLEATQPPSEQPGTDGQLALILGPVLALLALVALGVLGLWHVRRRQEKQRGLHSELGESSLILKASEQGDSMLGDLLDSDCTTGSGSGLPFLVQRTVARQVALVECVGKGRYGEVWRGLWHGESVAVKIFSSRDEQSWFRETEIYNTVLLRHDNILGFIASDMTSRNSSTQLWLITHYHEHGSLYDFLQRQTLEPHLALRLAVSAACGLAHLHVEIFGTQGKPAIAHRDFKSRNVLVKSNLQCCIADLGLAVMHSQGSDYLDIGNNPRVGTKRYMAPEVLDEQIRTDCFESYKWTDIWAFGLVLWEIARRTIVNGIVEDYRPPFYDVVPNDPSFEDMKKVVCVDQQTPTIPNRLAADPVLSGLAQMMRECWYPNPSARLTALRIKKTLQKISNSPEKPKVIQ

kinome (kinase panel) [10] = biological target: T10, kinome (kinase panel) (Homo sapiens, UniProt Q8TDC3); conditions: BRSK1; 1000 nM; read-out: Percent Control
T10 construct: purchased Eurofins DiscoverX

kinome (kinase panel) [11] = biological target: T11, kinome (kinase panel) (Homo sapiens, UniProt P22607); conditions: FGFR3; 1000 nM; read-out: Percent Control
T11 construct: purchased Eurofins DiscoverX

kinome (kinase panel) [12] = biological target: T12, kinome (kinase panel) (Homo sapiens, UniProt P07949, V804M); conditions: read-out: Percent Control
T12 construct: purchased Eurofins DiscoverX

kinome (kinase panel) [13] = biological target: T13, kinome (kinase panel) (Homo sapiens, UniProt O00750); conditions: PIK3C2B; 1000 nM; read-out: Percent Control
T13 construct: purchased Eurofins DiscoverX

kinome (kinase panel) [14] = biological target: T14, kinome (kinase panel) (Homo sapiens, UniProt O15075); conditions: DCAMKL1 (Entrez DCLK1); 1000 nM; read-out: Percent Control
T14 construct: purchased Eurofins DiscoverX

kinome (kinase panel) [15] = biological target: T15, kinome (kinase panel) (Homo sapiens, UniProt P08581, M1250T); conditions: […]; 1000 nM; read-out: Percent Control
T15 construct: purchased Eurofins DiscoverX

kinome (kinase panel) [16] = biological target: T16, kinome (kinase panel) (Homo sapiens, UniProt Q9Y463); conditions: DYRK1B; 1000 nM; read-out: Percent Control
T16 construct: purchased Eurofins DiscoverX
T16 sequence (Q9Y463 whole entry): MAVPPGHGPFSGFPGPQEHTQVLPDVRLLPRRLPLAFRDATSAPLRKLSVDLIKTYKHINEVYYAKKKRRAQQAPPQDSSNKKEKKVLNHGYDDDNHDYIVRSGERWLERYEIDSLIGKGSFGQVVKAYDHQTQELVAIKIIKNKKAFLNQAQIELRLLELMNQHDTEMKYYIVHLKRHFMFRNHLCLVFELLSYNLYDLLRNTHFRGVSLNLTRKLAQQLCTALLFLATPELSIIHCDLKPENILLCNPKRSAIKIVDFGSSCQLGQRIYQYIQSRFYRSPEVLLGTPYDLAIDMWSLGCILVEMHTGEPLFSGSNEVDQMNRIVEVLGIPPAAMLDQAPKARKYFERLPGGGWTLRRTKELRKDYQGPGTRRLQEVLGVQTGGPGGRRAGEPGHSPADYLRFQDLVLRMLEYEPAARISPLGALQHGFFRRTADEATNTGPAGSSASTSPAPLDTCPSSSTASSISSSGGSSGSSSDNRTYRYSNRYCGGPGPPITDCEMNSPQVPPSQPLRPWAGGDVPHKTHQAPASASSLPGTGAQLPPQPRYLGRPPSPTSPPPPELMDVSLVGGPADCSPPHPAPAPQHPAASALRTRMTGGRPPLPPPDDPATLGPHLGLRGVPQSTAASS

kinome (kinase panel) [17] = biological target: T17, kinome (kinase panel) (Homo sapiens, UniProt P29320); conditions: EPHA3; 1000 nM; read-out: Percent Control
T17 construct: purchased Eurofins DiscoverX

kinome (kinase panel) [18] = biological target: T18, kinome (kinase panel) (Homo sapiens, UniProt P43405); conditions: SYK; 1000 nM; read-out: Percent Control
T18 construct: purchased Eurofins DiscoverX

kinome (kinase panel) [19] = biological target: T19, kinome (kinase panel) (Homo sapiens, UniProt O15197); conditions: EPHB6; 1000 nM; read-out: Percent Control
T19 construct: purchased Eurofins DiscoverX
T19 sequence (O15197 32-1021): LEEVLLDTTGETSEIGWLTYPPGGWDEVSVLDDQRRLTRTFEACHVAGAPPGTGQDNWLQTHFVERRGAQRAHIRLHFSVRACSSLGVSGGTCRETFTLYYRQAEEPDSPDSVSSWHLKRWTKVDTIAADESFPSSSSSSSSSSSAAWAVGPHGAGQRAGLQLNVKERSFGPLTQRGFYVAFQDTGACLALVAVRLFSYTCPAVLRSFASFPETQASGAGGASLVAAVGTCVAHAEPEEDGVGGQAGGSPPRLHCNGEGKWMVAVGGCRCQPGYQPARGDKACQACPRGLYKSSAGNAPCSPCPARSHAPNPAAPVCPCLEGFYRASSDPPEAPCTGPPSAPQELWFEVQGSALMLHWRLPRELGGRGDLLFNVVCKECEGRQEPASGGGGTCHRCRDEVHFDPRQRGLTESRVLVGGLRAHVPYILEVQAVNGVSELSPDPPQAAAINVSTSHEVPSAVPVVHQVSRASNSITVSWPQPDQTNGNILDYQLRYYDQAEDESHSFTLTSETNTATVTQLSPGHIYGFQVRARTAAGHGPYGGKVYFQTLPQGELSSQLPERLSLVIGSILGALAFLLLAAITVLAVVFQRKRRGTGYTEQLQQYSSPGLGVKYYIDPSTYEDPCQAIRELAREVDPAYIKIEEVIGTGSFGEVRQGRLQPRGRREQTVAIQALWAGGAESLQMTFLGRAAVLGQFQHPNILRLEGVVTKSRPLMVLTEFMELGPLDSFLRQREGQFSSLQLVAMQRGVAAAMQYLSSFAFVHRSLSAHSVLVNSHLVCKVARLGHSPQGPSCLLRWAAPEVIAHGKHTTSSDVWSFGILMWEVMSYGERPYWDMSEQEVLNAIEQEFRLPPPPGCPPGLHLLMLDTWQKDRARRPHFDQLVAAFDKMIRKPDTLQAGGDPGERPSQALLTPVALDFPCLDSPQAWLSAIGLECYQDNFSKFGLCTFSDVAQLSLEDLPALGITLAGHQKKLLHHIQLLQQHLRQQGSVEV

kinome (kinase panel) [20] = biological target: T20, kinome (kinase panel) (Homo sapiens, UniProt Q9P286); conditions: PAK7; 1000 nM; read-out: Percent Control
T20 construct: purchased Eurofins DiscoverX

kinome (kinase panel) [21] = biological target: T21, kinome (kinase panel) (Homo sapiens, UniProt Q16620); conditions: TRKB (NTRK2); 1000 nM; read-out: Percent Control
T21 construct: purchased Eurofins DiscoverX

kinome (kinase panel) [22] = biological target: T22, kinome (kinase panel) (Homo sapiens, UniProt Q9UQB9); conditions: AURKC; 1000 nM; read-out: Percent Control
T22 construct: purchased Eurofins DiscoverX
T22 sequence (Q9UQB9 whole entry): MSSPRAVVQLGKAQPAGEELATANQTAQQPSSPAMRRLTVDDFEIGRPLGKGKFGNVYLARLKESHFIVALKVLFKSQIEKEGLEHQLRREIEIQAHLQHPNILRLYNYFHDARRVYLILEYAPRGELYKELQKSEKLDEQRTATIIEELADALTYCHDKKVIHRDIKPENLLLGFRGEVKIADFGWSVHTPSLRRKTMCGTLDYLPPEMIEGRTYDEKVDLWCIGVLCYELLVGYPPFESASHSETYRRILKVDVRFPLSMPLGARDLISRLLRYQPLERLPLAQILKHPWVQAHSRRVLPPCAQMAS

kinome (kinase panel) [23] = biological target: T23, kinome (kinase panel) (Homo sapiens, UniProt P00533, L858R/T790M); conditions: read-out: Percent Control
T23 construct: purchased Eurofins DiscoverX

kinome (kinase panel) [24] = biological target: T24, kinome (kinase panel) (Homo sapiens, UniProt P24723); conditions: PRKCH; 1000 nM; read-out: Percent Control
T24 construct: purchased Eurofins DiscoverX

kinome (kinase panel) [25] = biological target: T25, kinome (kinase panel) (Homo sapiens, UniProt Q00526); conditions: CDK3; 1000 nM; read-out: Percent Control
T25 construct: purchased Eurofins DiscoverX

kinome (kinase panel) [26] = biological target: T26, kinome (kinase panel) (Homo sapiens, UniProt P42336, I800L); conditions: read-out: Percent Control
T26 construct: purchased Eurofins DiscoverX

kinome (kinase panel) [27] = biological target: T27, kinome (kinase panel) (Homo sapiens, UniProt O15530); conditions: PDPK1; 1000 nM; read-out: Percent Control
T27 construct: purchased Eurofins DiscoverX
T27 sequence (O15530 whole entry): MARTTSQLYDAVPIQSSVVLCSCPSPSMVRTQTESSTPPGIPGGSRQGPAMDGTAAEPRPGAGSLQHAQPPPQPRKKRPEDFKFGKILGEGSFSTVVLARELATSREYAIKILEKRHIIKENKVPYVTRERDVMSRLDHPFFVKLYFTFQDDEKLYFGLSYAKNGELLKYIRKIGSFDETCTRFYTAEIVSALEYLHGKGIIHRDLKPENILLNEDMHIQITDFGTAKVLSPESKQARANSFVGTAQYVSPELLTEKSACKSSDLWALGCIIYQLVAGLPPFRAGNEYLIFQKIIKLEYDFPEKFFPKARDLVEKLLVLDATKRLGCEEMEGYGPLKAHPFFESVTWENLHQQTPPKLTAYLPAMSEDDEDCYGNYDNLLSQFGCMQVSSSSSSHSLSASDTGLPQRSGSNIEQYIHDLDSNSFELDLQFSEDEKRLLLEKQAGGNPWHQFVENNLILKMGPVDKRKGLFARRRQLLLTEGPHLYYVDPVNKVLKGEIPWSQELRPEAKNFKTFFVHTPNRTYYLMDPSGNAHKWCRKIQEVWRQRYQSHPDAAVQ

kinome (kinase panel) [28] = biological target: T28, kinome (kinase panel) (Homo sapiens, UniProt Q13188); conditions: MST2 (Entrez STK3); 1000 nM; read-out: Percent Control
T28 construct: purchased Eurofins DiscoverX

kinome (kinase panel) [29] = biological target: T29, kinome (kinase panel) (Homo sapiens, UniProt Q9Y616); conditions: IRAK3; 1000 nM; read-out: Percent Control
T29 construct: purchased Eurofins DiscoverX

kinome (kinase panel) [30] = biological target: T30, kinome (kinase panel) (Homo sapiens, UniProt Q99640); conditions: PKMYT1; 1000 nM; read-out: Percent Control
T30 construct: purchased Eurofins DiscoverX

kinome (kinase panel) [31] = biological target: T31, kinome (kinase panel) (Homo sapiens, UniProt Q9BYP7); conditions: WNK3; 1000 nM; read-out: Percent Control
T31 construct: purchased Eurofins DiscoverX

kinome (kinase panel) [32] = biological target: T32, kinome (kinase panel) (Homo sapiens, UniProt P42336, Q546K); conditions: read-out: Percent Control
T32 construct: purchased Eurofins DiscoverX

`CN(C)C(=O)c1cc2cnc(Nc3ccc(-c4csc5c(=O)cc(N6CCOCC6)oc45)cc3)nc2n1C1CCCC1` [SRX3177] was tested, and the remaining binding at 1 µM (kinome (kinase panel) [1]) was 21%, the remaining binding at 1 µM (kinome (kinase panel) [2]; RSK2(Kin.Dom.1-N-terminal) (RPS6KA3)) was 80% and the remaining binding at 1 µM (kinome (kinase panel) [2]; RSK2(Kin.Dom.2-C-terminal) (RPS6KA3)) was 100%. It also gave a remaining binding at 1 µM (kinome (kinase panel) [3]) of 98%, a remaining binding at 1 µM (kinome (kinase panel) [4]) of 100% and a remaining binding at 1 µM (kinome (kinase panel) [5]) of 9.8%. For the same compound, the remaining binding at 1 µM (kinome (kinase panel) [6]; RSK4(Kin.Dom.1-N-terminal) (RPS6KA6)) was 90%, the remaining binding at 1 µM (kinome (kinase panel) [6]; RSK4(Kin.Dom.2-C-terminal) (RPS6KA6)) was 90% and the remaining binding at 1 µM (kinome (kinase panel) [7]) was 37%. It also gave a remaining binding at 1 µM (kinome (kinase panel) [8]) of 97%, a remaining binding at 1 µM (kinome (kinase panel) [9]) of 100% and a remaining binding at 1 µM (kinome (kinase panel) [10]) of 100%. The remaining binding at 1 µM (kinome (kinase panel) [11]) was 71%, the remaining binding at 1 µM (kinome (kinase panel) [12]) was 100% and the remaining binding at 1 µM (kinome (kinase panel) [13]) was 86%. It also gave a remaining binding at 1 µM (kinome (kinase panel) [14]) of 51%, a remaining binding at 1 µM (kinome (kinase panel) [15]) of 86% and a remaining binding at 1 µM (kinome (kinase panel) [16]) of 56%. It also gave a remaining binding at 1 µM (kinome (kinase panel) [17]) of 90%, a remaining binding at 1 µM (kinome (kinase panel) [18]) of 81% and a remaining binding at 1 µM (kinome (kinase panel) [19]) of 4.9%. The remaining binding at 1 µM (kinome (kinase panel) [20]) was 89%, the remaining binding at 1 µM (kinome (kinase panel) [21]) was 40% and the remaining binding at 1 µM (kinome (kinase panel) [22]) was 21%. It also gave a remaining binding at 1 µM (kinome (kinase panel) [23]) of 58%, a remaining binding at 1 µM (kinome (kinase panel) [24]) of 97% and a remaining binding at 1 µM (kinome (kinase panel) [25]) of 69%. For the same compound, the remaining binding at 1 µM (kinome (kinase panel) [26]) was 8.9%, the remaining binding at 1 µM (kinome (kinase panel) [27]) was 98% and the remaining binding at 1 µM (kinome (kinase panel) [28]) was 61%. For the same compound, the remaining binding at 1 µM (kinome (kinase panel) [29]) was 83%, the remaining binding at 1 µM (kinome (kinase panel) [30]) was 88% and the remaining binding at 1 µM (kinome (kinase panel) [31]) was 100%. For the same compound, the remaining binding at 1 µM (kinome (kinase panel) [32]) was 41%.
